Laboratory results from patent US8822464B2, “N-aryl-piperazine derivatives and their use as positive allosteric modulators of mGluR5 receptors” (Boehringer Ingelheim International GmbH, priority 2011, dated 2014).

The compounds below were run against T1, human recombinant mGluR5 (Homo sapiens, UniProt P41594) (assay: positive modulation of mGluR5, calcium based FLIPR assay in HEK 293 cells). Conditions: HEK 293 cell line expressing human recombinant mGluR5; peak height of Ca release fluorescence signal after glutamate at approximately 5% basal stimulation; nonlinear regression.
T1 construct: expressed in transfected cells; host or cells: HEK 293 cell line; cultured with tetracycline, hygromycin and geneticin; tetracycline withdrawn 3-7 days before the assay
Experimental: The positive modulation of mGluR5 is measured in a HEK 293 cell line expressing human recombinant mGluR5 and is detected with calcium based FLIPR assay. The cells are cultured with DMEM supplemented with 10% FCS, 2 μg/mL tetracycline, 100 μg/mL hygromycin and 500 μg/mL gneticin. The cell culture media is exchanged for tetracycline-free cell culture media 3-7 days before the assay. One day before the assay the cell culture medium is exchanged to DMEM without glutamine and phenol red and supplemented with 10% FCS, 100 μg/mL hygromycin and 500 μg/mL geneticin. On the assay day, the medium of the subconfluent cultures is removed and the cells are detached by addition of 2.5 ml EDTA(0.02%) per 175 cm2 culture flask for 1 minute. The cells are resuspend in Ringer solution (140 mM NaCl, 5 mM KCl, 2.5 mM CaCl2, 1.5 mM MgCl2, 5 mM Glucose, 10 mM Hepes; adjusted to pH 7.4 with NaOH), pooled and Ringer solution added to adjust the volume to 50 mL. The cell suspension is centrifuged for 5 min at 1500 U/min (425 g). The supernatant is removed and the cells washed a second time with 50 ml fresh Ringer solution and centrifuged again as before. The supernatant is again removed and the pellet resuspended in Ringer solution to 1,000,000 cells/ml (1×10^6 cells/mL). The cells are plated onto BD BioCoat Poly-D-Lysine 384 well plates (20.000 cells/well; 20 μl/well). The lid covered plates are then incubated until use at 37° C./10% CO2. For dye loading, 20 μl of Calcium-4 assay kit solution (prepared according to the manufacturer's description in Ringer solution) are added to the cells and the plates are incubated for 80 min 37° C. and then 10 min at room temperature.
Controls, Compound Dilution and Assay Execution:
Each assay plate contained wells with “high” and “low” controls:
Low controls 1% DMSO/ringer solution+basal glutamate activation (defined as 100% CTL).
High controls 10 μM CDPPB+basal glutamate activation (defined as 200% CTL).
Test compounds are dissolved and diluted in DMSO to 100-fold the desired concentrations. In a second step, the compounds are diluted in Ringer solution such that the compounds are 4-fold more concentrated than the desired final assay concentration. The final DMSO concentration was 1%.
20 μl of each compound solution are then transferred to the assay plate and the Ca2+ kinetic is measured to determine any intrinsic compound activity. After 5 min incubation in the FLIPR device, the second stimulation with 20 μl of glutamate in Ringer solution (glutamate concentration adjusted to approximately 5% basal stimulation of the maximal possible glutamate effect) is added and the kinetic Ca2+ response of the wells was measured for the modulation effect.
The peak height of the Ca release related fluorescence signal (9-66) is used for the EC50. The EC50 of the modulation is calculated over a nonlinear regression with GraphPad Prism (Table 1).

T1 sequence (P41594 21-1212): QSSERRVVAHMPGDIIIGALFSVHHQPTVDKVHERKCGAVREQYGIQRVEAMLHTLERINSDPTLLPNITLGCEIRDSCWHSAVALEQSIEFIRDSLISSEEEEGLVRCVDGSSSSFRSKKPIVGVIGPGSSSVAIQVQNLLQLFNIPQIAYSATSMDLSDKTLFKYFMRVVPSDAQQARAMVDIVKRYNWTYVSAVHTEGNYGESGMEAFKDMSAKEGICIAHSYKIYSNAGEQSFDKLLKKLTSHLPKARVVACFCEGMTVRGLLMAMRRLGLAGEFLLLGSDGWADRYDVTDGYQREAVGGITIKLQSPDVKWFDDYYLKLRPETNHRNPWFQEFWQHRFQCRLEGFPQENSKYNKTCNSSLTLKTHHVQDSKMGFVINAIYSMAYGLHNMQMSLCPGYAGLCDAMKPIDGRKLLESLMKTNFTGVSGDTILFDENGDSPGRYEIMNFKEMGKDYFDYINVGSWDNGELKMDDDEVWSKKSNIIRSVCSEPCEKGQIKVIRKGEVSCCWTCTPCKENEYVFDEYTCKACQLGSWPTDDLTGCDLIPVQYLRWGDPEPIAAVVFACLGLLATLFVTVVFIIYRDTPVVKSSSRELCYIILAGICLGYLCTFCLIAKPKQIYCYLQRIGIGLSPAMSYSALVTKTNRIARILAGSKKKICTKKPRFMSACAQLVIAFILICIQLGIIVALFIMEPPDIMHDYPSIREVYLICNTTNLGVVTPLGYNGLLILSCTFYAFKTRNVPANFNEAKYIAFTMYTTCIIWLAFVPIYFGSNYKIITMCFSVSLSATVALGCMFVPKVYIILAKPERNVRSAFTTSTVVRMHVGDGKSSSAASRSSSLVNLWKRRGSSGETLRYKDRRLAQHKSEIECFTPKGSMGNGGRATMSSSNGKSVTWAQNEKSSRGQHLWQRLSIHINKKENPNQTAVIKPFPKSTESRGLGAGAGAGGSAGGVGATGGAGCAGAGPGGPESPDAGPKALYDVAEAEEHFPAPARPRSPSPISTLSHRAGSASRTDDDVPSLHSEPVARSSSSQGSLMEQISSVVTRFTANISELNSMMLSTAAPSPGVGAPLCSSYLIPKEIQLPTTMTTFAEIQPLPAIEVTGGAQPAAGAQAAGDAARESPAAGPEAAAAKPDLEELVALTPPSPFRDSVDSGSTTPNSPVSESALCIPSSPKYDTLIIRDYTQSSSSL

| SMILES | EC50 |
| --- | --- |
| Cc1cc(-c2cc(-c3ccccc3)n(CC(=O)N3CCN(c4ncccn4)CC3)n2)ccc1F [Example 7.01.01, 2-(3-(4-Fluoro-3-methyl-phenyl)-5-phenyl-pyrazol-1-yl)-1-(4-(2-pyrimidinyl)-1-piperazinyl)-ethanon] | 0.006 µM |
| Cc1cc(-c2cc(-c3ccccc3)n(CC(=O)N3CCN(c4cccnn4)CC3)n2)ccc1F [Example 7.01.02] | 0.009 µM |
| COc1cc(N2CCN(C(=O)Cn3nc(-c4ccc(F)c(C)c4)cc3-c3ccccc3)CC2)ncn1 [Example 7.01.03] | 0.011 µM |
| Cc1cc(-c2cc(-c3ccccc3)n(CC(=O)N3CCN(c4ccccn4)CC3)n2)ccc1F [Example 7.01.04] | 0.011 µM |
| Cc1cc(-c2cc(-c3ccccc3)nn2CC(=O)N2CCN(c3ccccn3)CC2)ccc1F [Example 7.01.06] | 0.099 µM |
| O=C(Cn1nc(-c2ccccc2)cc1-c1ccccc1)N1CCN(c2ccc(Cl)cn2)CC1 [Example 7.01.09] | 0.373 µM |
| CCOc1ccccc1N1CCN(C(=O)Cn2nc(-c3ccccc3)cc2-c2ccccc2)CC1 [Example 7.01.11] | 1.42 µM |
| O=C(Cn1nc(-c2ccc(F)cc2)cc1-c1ccc(F)cc1)N1CCN(c2ncccn2)CC1 [Example 7.01.13] | 0.014 µM |
| COc1cc(N2CCN(C(=O)Cn3nc(-c4ccc(F)cc4)cc3-c3ccc(F)cc3)CC2)ncn1 [Example 7.01.14] | 0.022 µM |
| O=C(Cn1nc(-c2ccc(F)cc2)cc1-c1ccc(F)cc1)N1CCN(c2ccccn2)CC1 [Example 7.01.15] | 0.03 µM |
| COc1ccnc(N2CCN(C(=O)Cn3nc(-c4ccc(F)cc4)cc3-c3ccc(F)cc3)CC2)c1 [Example 7.01.16] | 0.032 µM |
| COc1cccc(-c2cc(C3CCCCC3)n(CC(=O)N3CCN(c4ccccn4)CC3)n2)c1 [Example 7.01.18] | 0.285 µM |
| COc1ccc(-c2cc(C(C)C)n(CC(=O)N3CCN(c4ncccn4)CC3)n2)cc1 [Example 7.01.19] | 0.086 µM |
| COc1ccc(-c2cc(C(C)C)n(CC(=O)N3CCN(c4ccccn4)CC3)n2)cc1 [Example 7.01.20] | 0.183 µM |
| COc1ccc(-c2cc(C(C)C)n(CC(=O)N3CCN(c4cc(C)ccn4)CC3)n2)cc1 [Example 7.01.21] | 0.111 µM |
| COc1ccc(-c2cc(C(C)C)n(CC(=O)N3CCN(c4cccnn4)CC3)n2)cc1 [Example 7.01.22] | 0.701 µM |
| COc1ccc(-c2cc(C(C)C)n(CC(=O)N3CCN(c4cc(OC)ncn4)CC3)n2)cc1 [Example 7.01.23] | 0.221 µM |

| SMILES | EC50 |
| --- | --- |
| Cc1ccnc(N2CCN(C(=O)Cn3nc(-c4ccc(F)c(C)c4)cc3C(C)C)CC2)c1 [Example 7.01.24] | 0.079 µM |
| COc1ccnc(N2CCN(C(=O)Cn3nc(-c4ccc(F)c(C)c4)cc3C(C)C)CC2)c1 [Example 7.01.25] | 0.112 µM |
| Cc1cc(-c2cc(C(C)C)n(CC(=O)N3CCN(c4ccccn4)CC3)n2)ccc1F [Example 7.01.26] | 0.138 µM |
| COc1cnc(N2CCN(C(=O)Cn3nc(-c4ccc(F)c(C)c4)cc3C(C)C)CC2)nc1 [Example 7.01.32] | 0.075 µM |
| Cc1ccnc(N2CCN(C(=O)Cn3nc(-c4ccc(F)c(C)c4)cc3C3CCCCC3)CC2)c1 [Example 7.01.33] | 0.161 µM |
| Cc1cc(-c2cc(C3CCCCC3)n(CC(=O)N3CCN(c4ncccn4)CC3)n2)ccc1F [Example 7.01.34] | 0.06 µM |
| Cc1cc(-c2cc(C3CCCCC3)n(CC(=O)N3CCN(c4ccccn4)CC3)n2)ccc1F [Example 7.01.35] | 0.213 µM |
| COc1cc(N2CCN(C(=O)Cn3nc(-c4ccc(F)c(C)c4)cc3C3CCCCC3)CC2)ncn1 [Example 7.01.36] | 0.308 µM |
| Cc1cc(-c2cc(C3CC3)n(CC(=O)N3CCN(c4cccnn4)CC3)n2)ccc1F [Example 7.01.43] | 0.725 µM |
| Cc1ccnc(N2CCN(C(=O)Cn3nc(-c4ccc(F)c(C)c4)cc3C3CC3)CC2)c1 [Example 7.01.44] | 0.176 µM |
| COc1cnnc(N2CCN(C(=O)Cn3nc(-c4ccc(F)c(C)c4)cc3C3CC3)CC2)c1 [Example 7.01.45] | 1.01 µM |
| COc1cc(N2CCN(C(=O)Cn3nc(-c4ccc(F)c(OC)c4)cc3C(C)C)CC2)ncn1 [Example 7.01.47] | 0.447 µM |
| COc1cc(-c2cc(C(C)C)n(CC(=O)N3CCN(c4cc(C)ccn4)CC3)n2)ccc1F [Example 7.01.48] | 0.687 µM |
| O=C(Cn1nc(-c2ccc(F)cn2)cc1-c1ccccc1)N1CCN(c2ncccn2)CC1 [Example 7.01.57] | 0.081 µM |
| O=C(Cn1nc(-c2ccc(F)cn2)cc1-c1ccccc1)N1CCN(c2cccnn2)CC1 [Example 7.01.60] | 1.23 µM |
| O=C(Cn1nc(-c2ccc(F)cn2)cc1-c1ccc(F)cc1)N1CCN(c2ncccn2)CC1 [Example 7.01.62] | 0.048 µM |
| COc1cc(N2CCN(C(=O)Cn3nc(-c4ccc(F)cn4)cc3-c3ccc(F)cc3)CC2)ncn1 [Example 7.01.63] | 0.094 µM |

Now from value to compound:

| EC50 | SMILES |
| --- | --- |
| 0.044 µM | Cc1cc(-c2cc(-c3ccccc3)nn2CC(=O)N2CCN(c3ncccn3)CC2)ccc1F [Example 7.01.05] |
| 0.621 µM | O=C(Cn1nc(-c2ccccc2)cc1-c1ccccc1)N1CCN(c2nccc3ccccc23)CC1 [Example 7.01.07] |
| 0.349 µM | O=C(Cn1nc(-c2ccccc2)cc1-c1ccccc1)N1CCN(c2ccncn2)CC1 [Example 7.01.08] |
| 0.75 µM | N#Cc1ccccc1N1CCN(C(=O)Cn2nc(-c3ccccc3)cc2-c2ccccc2)CC1 [Example 7.01.10] |
| 0.216 µM | O=C(Cn1nc(-c2ccccc2)cc1-c1ccccc1)N1CCN(c2ccc(Cl)nn2)CC1 [Example 7.01.12] |
| 0.117 µM | COc1cccc(-c2cc(C3CCCCC3)n(CC(=O)N3CCN(c4ncccn4)CC3)n2)c1 [Example 7.01.17] |
| 0.064 µM | COc1cc(N2CCN(C(=O)Cn3nc(-c4ccc(F)c(C)c4)cc3C(C)C)CC2)ncn1 [Example 7.01.27] |
| 0.158 µM | Cc1cc(-c2cc(C(C)C)n(CC(=O)N3CCN(c4cccnn4)CC3)n2)ccc1F [Example 7.01.29] |
| 0.987 µM | COc1cnnc(N2CCN(C(=O)Cn3nc(-c4ccc(F)c(C)c4)cc3C(C)C)CC2)c1 [Example 7.01.30] |
| 0.208 µM | Cc1cc(-c2cc(C(C)C)n(CC(=O)N3CCN(c4ncc(F)cn4)CC3)n2)ccc1F [Example 7.01.31] |
| 0.298 µM | COc1ccnc(N2CCN(C(=O)Cn3nc(-c4ccc(F)c(C)c4)cc3C3CCCCC3)CC2)c1 [Example 7.01.37] |
| 0.1 µM | Cc1cc(-c2cc(C3CCCCC3)n(CC(=O)N3CCN(c4cccnn4)CC3)n2)ccc1F [Example 7.01.38] |
| 0.234 µM | Cc1cc(-c2cc(C3CC3)n(CC(=O)N3CCN(c4ccccn4)CC3)n2)ccc1F [Example 7.01.41] |
| 0.101 µM | Cc1cc(-c2cc(C3CC3)n(CC(=O)N3CCN(c4ncccn4)CC3)n2)ccc1F [Example 7.01.42] |
| 0.333 µM | COc1ccnc(N2CCN(C(=O)Cn3nc(-c4ccc(F)c(C)c4)cc3C3CC3)CC2)c1 [Example 7.01.46] |
| 1.06 µM | COc1cc(-c2cc(C(C)C)n(CC(=O)N3CCN(c4ccccn4)CC3)n2)ccc1F [Example 7.01.49] |
| 0.512 µM | COc1cc(-c2cc(C(C)C)n(CC(=O)N3CCN(c4ncc(Br)cn4)CC3)n2)ccc1F [Example 7.01.50] |
| 0.485 µM | COc1cc(-c2cc(C(C)C)n(CC(=O)N3CCN(c4ncccn4)CC3)n2)ccc1F [Example 7.01.51] |
| 0.431 µM | COc1ccc(-c2cc(C(C)C)n(CC(=O)N3CCN(c4cc(C)ccn4)CC3)n2)cc1C [Example 7.01.52] |
| 0.205 µM | COc1ccc(-c2cc(C(C)C)n(CC(=O)N3CCN(c4ncccn4)CC3)n2)cc1C [Example 7.01.54] |
| 0.501 µM | COc1ccnc(N2CCN(C(=O)Cn3nc(-c4ccc(OC)c(C)c4)cc3C(C)C)CC2)c1 [Example 7.01.55] |
| 0.393 µM | COc1ccc(-c2cc(C(C)C)n(CC(=O)N3CCN(c4ccccn4)CC3)n2)cc1C [Example 7.01.56] |
| 0.211 µM | O=C(Cn1nc(-c2ccc(F)cn2)cc1-c1ccccc1)N1CCN(c2ccccn2)CC1 [Example 7.01.58] |
| 0.118 µM | O=C(Cn1nc(-c2ccc(F)cn2)cc1-c1ccc(F)cc1)N1CCN(c2ccccn2)CC1 [Example 7.01.59] |
| 0.246 µM | COc1cc(N2CCN(C(=O)Cn3nc(-c4ccc(F)cn4)cc3-c3ccccc3)CC2)ncn1 [Example 7.01.61] |
